According to US8399381B2, “Condensed heterocyclic sulfonyl urea compound, a herbicide containing the same, and a method for weed control using the same” (Sumitomo Chemical Company, Limited, priority 2002, dated 2013):

Tests used:
[1] = system: sulfonylurea herbicide-resistant Lindernia procumbens (Krock.) Philcox; experiment: Paddy pot weeding test, flooded, two-leaf stage (Test Example 1); type: in vivo; conditions: 1 g/are, three weeks after treatment, resistant biotype, Tajiri Town, Miyagi Pref.
Excerpt: (§1) A 5 cm×5 cm Jiffy Pot™ was charged with paddy soil, then water was introduced into each pot, seeds of sulfonylurea herbicide-sensitive Scirpus juncoides var. ohwianus, sulfonylurea herbicide-sensitive Lindernia procumbens (Krock.) Philcox, sulfonylurea herbicide-sensitive Lindernia dubia subsp. major Pennell, sulfonylurea herbicide-resistant Scirpus juncoides var. ohwianus, sulfonylurea herbicide-resistant Lindernia procumbens (Krock.) Philcox and sulfonylurea herbicide-resistant Lindernia dubia subsp. major Pennell were sowed therein and cultivated for a prescribed period under flooding conditions. When the plants reached the two-leave stage, the prescribed number of Jiffy Pots where the plants had been grown were transferred to a 150-cm^2 rectangular plastic pot, and water was introduced to a height of 3 cm, and a chemical diluent containing a compound was applied into the pot in an amount of 1 g/are. The chemical diluent was prepared by dissolving 1.5 g compound in 2 L of N,N-dimethylformamide (DMF) containing, 2% (W/V) surfactant Tween™ 20 and then diluting it with water to adjust the total volume to 10 L.

[2] = system: sulfonylurea herbicide-sensitive Lindernia dubia subsp. major Pennell; experiment: as above; type: in vivo; conditions: 1 g/are, three weeks after treatment, sensitive biotype, Makabe Town, Ibaraki Pref.
Excerpt: as §1

[3] = system: sulfonylurea herbicide-sensitive Scirpus juncoides var. ohwianus; experiment: as above; type: in vivo; conditions: 1 g/are, three weeks after treatment, sensitive biotype, Kyoto Pref.
Excerpt: as §1

[4] = system: sulfonylurea herbicide-resistant Lindernia dubia subsp. major Pennell; experiment: as above; type: in vivo; conditions: 1 g/are, three weeks after treatment, resistant biotype, Kawanishi Town, Yamagata Pref.
Excerpt: as §1

[5] = system: sulfonylurea herbicide-resistant Scirpus juncoides var. ohwianus; experiment: as above; type: in vivo; conditions: 1 g/are, three weeks after treatment, resistant biotype, Iwamisawa City, Hokkaido
Excerpt: as §1

[6] = system: sulfonylurea herbicide-sensitive Lindernia procumbens (Krock.) Philcox; experiment: as above; type: in vivo; conditions: 1 g/are, three weeks after treatment, sensitive biotype, Kyoto Pref.
Excerpt: as §1

Compound	melting point	R Lindernia procumbens (Krock.) Philcox (effect index) [1]	S Lindernia dubia subsp. major Pennell (effect index) [2]	S Scirpus juncoides var. ohwianus (effect index) [3]	R Lindernia dubia subsp. major Pennell (effect index) [4]	R Scirpus juncoides var. ohwianus (effect index) [5]	S Lindernia procumbens (Krock.) Philcox (effect index) [6]
CCc1nc2ccc(SC)nn2c1NC(=O)NS(=O)(=O)c1nc(OC)cc(OC)n1 [Compound No. 8]	146 to 148 °C	5 (excellent 81 to 100)	5 (excellent 81 to 100)	5 (excellent 81 to 100)	5 (excellent 81 to 100)	5 (excellent 81 to 100)	5 (excellent 81 to 100)
COc1cc(OC)nc(S(=O)(=O)NC(=O)Nc2c(C)nc3ccc(N(C)C)nn23)n1 [Compound No. 14]	183 to 185 °C (dec.)	3 (moderate 41 to 60)	5 (excellent 81 to 100)	5 (excellent 81 to 100)	4 (high 61 to 80)	5 (excellent 81 to 100)	5 (excellent 81 to 100)
CCSc1ccc2nc(C)c(NC(=O)NS(=O)(=O)c3nc(OC)cc(OC)n3)n2n1 [Compound No. 18]	163 to 165 °C	5 (excellent 81 to 100)	5 (excellent 81 to 100)	5 (excellent 81 to 100)	5 (excellent 81 to 100)	5 (excellent 81 to 100)	5 (excellent 81 to 100)
CCc1ccc2nc(C)c(S(=O)(=O)NC(=O)Nc3nc(OC)cc(OC)n3)n2n1 [Compound No. 13, 1-(4,6-dimethoxypyrimidin-2-yl)-3-(6-ethyl-2-methylimidazo[1,2-b]pyridazin-3-ylsulfonyl)urea]	172 to 174 °C	5 (excellent 81 to 100)	5 (excellent 81 to 100)	5 (excellent 81 to 100)	5 (excellent 81 to 100)	5 (excellent 81 to 100)	5 (excellent 81 to 100)
CCNc1ccc2nc(Cl)c(NC(=O)NS(=O)(=O)c3nc(OC)cc(OC)n3)n2n1 [Compound No. 3]	169 to 171 °C	5 (excellent 81 to 100)	5 (excellent 81 to 100)	5 (excellent 81 to 100)	5 (excellent 81 to 100)	5 (excellent 81 to 100)	5 (excellent 81 to 100)
CCOc1ccc2nc(C)c(NC(=O)NS(=O)(=O)c3nc(OC)cc(OC)n3)n2n1 [Compound No. 16]	168 to 170 °C (dec.)	4 (high 61 to 80)	5 (excellent 81 to 100)	5 (excellent 81 to 100)	5 (excellent 81 to 100)	5 (excellent 81 to 100)	5 (excellent 81 to 100)
COc1cc(OC)nc(S(=O)(=O)NC(=O)Nc2c(S(C)(=O)=O)nn3ccsc23)n1 [Compound No. 35]	190 to 201 °C	3 (moderate 41 to 60)	5 (excellent 81 to 100)	5 (excellent 81 to 100)	5 (excellent 81 to 100)	5 (excellent 81 to 100)	5 (excellent 81 to 100)
COc1cc(OC)nc(S(=O)(=O)NC(=O)Nc2c(C)nc3ccc(SC)nn23)n1 [Compound No. 19]	178 to 180 °C (dec.)	5 (excellent 81 to 100)	5 (excellent 81 to 100)	5 (excellent 81 to 100)	4 (high 61 to 80)	5 (excellent 81 to 100)	5 (excellent 81 to 100)
COc1cc(OC)nc(S(=O)(=O)NC(=O)Nc2c(C(F)(F)F)nc3ccc(SC)nn23)n1 [Compound No. 12]	266 to 267 °C	3 (moderate 41 to 60)	5 (excellent 81 to 100)	5 (excellent 81 to 100)	5 (excellent 81 to 100)	5 (excellent 81 to 100)	5 (excellent 81 to 100)
COc1cc(OC)nc(NC(=O)NS(=O)(=O)c2c(C)nc3cccnn23)n1 [comparison 1, reference compound]	–	0 (none 0)	5 (excellent 81 to 100)	5 (excellent 81 to 100)	1 (very slight 1 to 20)	2 (slight 21 to 40)	5 (excellent 81 to 100)

Now from value to molecule, other results behind:

melting point	Compound	R Lindernia procumbens (Krock.) Philcox (effect index) [1]	S Lindernia dubia subsp. major Pennell (effect index) [2]	S Scirpus juncoides var. ohwianus (effect index) [3]	R Lindernia dubia subsp. major Pennell (effect index) [4]	R Scirpus juncoides var. ohwianus (effect index) [5]	S Lindernia procumbens (Krock.) Philcox (effect index) [6]
206 to 208 °C	CCc1nc2ccc(S(C)(=O)=O)nn2c1NC(=O)NS(=O)(=O)c1nc(OC)cc(OC)n1 [Compound No. 9]	3 (moderate 41 to 60)	5 (excellent 81 to 100)	5 (excellent 81 to 100)	5 (excellent 81 to 100)	5 (excellent 81 to 100)	5 (excellent 81 to 100)
162 to 166 °C	CCc1ccc2nc(Cl)c(NC(=O)NS(=O)(=O)c3nc(OC)cc(OC)n3)n2n1 [Compound No. 37]	5 (excellent 81 to 100)	5 (excellent 81 to 100)	5 (excellent 81 to 100)	5 (excellent 81 to 100)	5 (excellent 81 to 100)	5 (excellent 81 to 100)
174 to 176 °C	CCc1nc2ccc(N(C)C)nn2c1NC(=O)NS(=O)(=O)c1nc(OC)cc(OC)n1 [Compound No. 4]	3 (moderate 41 to 60)	5 (excellent 81 to 100)	5 (excellent 81 to 100)	5 (excellent 81 to 100)	5 (excellent 81 to 100)	5 (excellent 81 to 100)
163 to 165 °C	COc1cc(OC)nc(S(=O)(=O)NC(=O)Nc2c(Cl)nc3ccc(SC)nn23)n1 [Compound No. 26]	3 (moderate 41 to 60)	5 (excellent 81 to 100)	5 (excellent 81 to 100)	4 (high 61 to 80)	5 (excellent 81 to 100)	5 (excellent 81 to 100)
160 to 165 °C (dec.)	CCSc1ccc2nc(CC)c(S(=O)(=O)NC(=O)Nc3nc(OC)cc(OC)n3)n2n1 [Compound No. 7, 1-(4,6-dimethoxypyrimidin-2-yl)-3-(2-ethyl-6-ethylthioimidazo[1,2-b]pyridazin-3-ylsulfonyl)urea]	3 (moderate 41 to 60)	5 (excellent 81 to 100)	5 (excellent 81 to 100)	4 (high 61 to 80)	5 (excellent 81 to 100)	5 (excellent 81 to 100)
